Data published in patent US10640506B2, “Cyclobutyl substituted pyrrolopyridine and pyrrolopyrimidines derivatives as JAK inhibitors” (Incyte Corporation, priority 2010, dated 2020).
Where a name gives a salt, the structure may show the parent alone. Read-outs that look alike come from different tables or passages of the source.

Columns and labels:
JAK2 (a.a. 828-1132) = target: T1, JAK2 (a.a. 828-1132) (Homo sapiens, UniProt O60674); assay: In vitro JAK kinase assay (HTRF, phosphorylation of biotinylated peptide), JAK2; type: biochemical; conditions: 1 mM ATP
T1 construct: JAK2 (a.a. 828-1132); His tag (N)
Procedure, shortened: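 His-tagged catalytic domains of human JAK1 (a.a. 837-1142) and JAK2 (a.a. 828-1132), baculovirus-expressed, phosphorylate a biotinylated peptide for 1 hour at room temperature. Stopped with EDTA; detected by HTRF using SA-APC and Eu-Py20 antibody after 40 min binding; values binned as ranges.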

[1] = target: human JAK1 (a.a. 837-1142) (Homo sapiens, UniProt P23458); assay: In vitro JAK kinase assay (HTRF, phosphorylation of biotinylated peptide), JAK1; type: biochemical; conditions: 1 mM ATP
Procedure, shortened: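 His-tagged human JAK1 catalytic domain (a.a. 837-1142), baculovirus/insect-cell expressed, phosphorylates a biotinylated peptide for 1 h at room temperature. Reaction stopped with EDTA; product detected by HTRF (SA-APC, Eu-Py20, 40 min binding). IC50 reported as ranges.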

Sequence of human JAK1 (a.a. 837-1142) (P23458 849-1154): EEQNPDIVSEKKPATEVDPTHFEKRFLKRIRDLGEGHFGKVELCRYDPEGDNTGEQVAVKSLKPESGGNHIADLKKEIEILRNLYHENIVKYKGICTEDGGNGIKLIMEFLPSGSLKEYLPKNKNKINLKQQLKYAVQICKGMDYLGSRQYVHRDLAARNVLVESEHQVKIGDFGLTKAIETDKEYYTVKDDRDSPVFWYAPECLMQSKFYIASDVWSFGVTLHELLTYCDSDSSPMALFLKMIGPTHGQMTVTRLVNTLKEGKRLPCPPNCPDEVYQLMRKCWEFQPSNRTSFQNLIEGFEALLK
T1 sequence (O60674 828-1132): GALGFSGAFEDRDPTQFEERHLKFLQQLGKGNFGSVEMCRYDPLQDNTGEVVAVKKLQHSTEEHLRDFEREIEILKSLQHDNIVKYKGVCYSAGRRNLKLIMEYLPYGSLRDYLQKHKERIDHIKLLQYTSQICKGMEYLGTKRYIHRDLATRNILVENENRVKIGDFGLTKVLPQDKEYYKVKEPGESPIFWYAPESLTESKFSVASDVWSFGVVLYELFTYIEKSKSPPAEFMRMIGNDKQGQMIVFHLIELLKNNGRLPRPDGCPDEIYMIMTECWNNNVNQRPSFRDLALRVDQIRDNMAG

Row | Compound | IC50 (JAK2 (a.a. 828-1132); Table B, read-out: JAK2 IC50) [nM] | IC50 ([1]; Table B, read-out: JAK1 IC50) [nM] | IC50 (JAK2 (a.a. 828-1132); Table A, read-out: JAK2 IC50) [nM] | IC50 ([1]; Table A, read-out: JAK1 IC50) [nM] | further results
1 | N#CC[C@]1(n2cc(-c3ncnc4[nH]ccc34)cn2)C[C@@H](N2CCN(C(=O)c3cccc(C(F)(F)F)c3F)CC2)C1 [Example 22, {cis-3-{4-[2-fluoro-3-(trifluoromethyl)benzoyl]piperazin-1-yl}-1-[4-(7H-pyrrolo[2,3-d]pyrimidin-4-yl)-1H-pyrazol-1-yl]cyclobutyl}acetonitrile] |  |  | 25 to 100 | < 10 | 
2 | N#CC[C@]1(n2cc(-c3ncnc4[nH]ccc34)cn2)C[C@H](N2CCN(C(=O)N3CCCCC3)CC2)C1 [Example 25, {trans-3-[4-(piperidin-1-ylcarbonyl)piperazin-1-yl]-1-[4-(7H-pyrrolo[2,3-d]pyrimidin-4-yl)-1H-pyrazol-1-yl]cyclobutyl}acetonitrile] | > 100 | 25 to 100 |  |  | 
3 | N#CC[C@]1(n2cc(-c3ncnc4[nH]ccc34)cn2)C[C@@H](N2CCN(C(=O)c3ccc(F)c(OC(F)(F)F)c3)CC2)C1 [Example 26, {cis-3-{4-[4-fluoro-3-(trifluoromethoxy)benzoyl]piperazin-1-yl}-1-[4-(7H-pyrrolo[2,3-d]pyrimidin-4-yl)-1H-pyrazol-1-yl]cyclobutyl}acetonitrile] |  |  | 25 to 100 | 10 to 25 | 
4 | N#CC[C@]1(n2cc(-c3ncnc4[nH]ccc34)cn2)C[C@@H](N2CCN(C(=O)c3ncc(C(F)(F)F)cc3F)CC2)C1 [Example 27, {cis-3-(4-{[3-fluoro-5-(trifluoromethyl)pyridin-2-yl]carbonyl}piperazin-1-yl)-1-[4-(7H-pyrrolo[2,3-d]pyrimidin-4-yl)-1H-pyrazol-1-yl]cyclobutyl}acetonitrile] |  |  | 25 to 100 | < 10 | 
5 | N#CC[C@]1(n2cc(-c3ncnc4[nH]ccc34)cn2)C[C@@H](N2CCN(C(=O)c3ccc(Cl)cc3)CC2)C1 [Example 28, {cis-3-{4-[4-chlorobenzoyl]piperazin-1-yl}-1-[4-(7H-pyrrolo[2,3-d]pyrimidin-4-yl)-1H-pyrazol-1-yl]cyclobutyl}acetonitrile] |  |  | 10 to 25 | < 10 | 
6 | N#CC[C@]1(n2cc(-c3ncnc4[nH]ccc34)cn2)C[C@@H](N2CCN(C(=O)c3ccc(C(F)(F)F)cc3F)CC2)C1 [Example 29, {cis-3-{4-[2-fluoro-4-(trifluoromethyl)benzoyl]piperazin-1-yl}-1-[4-(7H-pyrrolo[2,3-d]pyrimidin-4-yl)-1H-pyrazol-1-yl]cyclobutyl}acetonitrile 2.3×(trifluoroacetate) Salt] |  |  | 25 to 100 | 10 to 25 | 
7 | [2H][C@]1(N2CCN(C(=O)c3ccnc(C(F)(F)F)n3)CC2)C[C@@](CC#N)(n2cc(-c3ncnc4[nH]ccc34)cn2)C1 [Example 30, [cis-1-[4-(7H-pyrrolo[2,3-d]pyrimidin-4-yl)-1H-pyrazol-1-yl]-3-(4-{[2-(trifluoromethyl)pyrimidin-4-yl]carbonyl}piperazin-1-yl)cyclobutyl]acetonitrile-d1] |  |  |  |  | IC50 (JAK2 (a.a. 828-1132); Table C, read-out: JAK2 IC50): > 100 nM; IC50 ([1]; Table C, read-out: JAK1 IC50): < 10 nM
8 | [2H][C@]1(N2CCN(C(=O)c3ccnc(C(F)(F)F)n3)CC2)C[C@](CC#N)(n2cc(-c3ncnc4[nH]ccc34)cn2)C1 [Example 31, [trans-1-[4-(7H-pyrrolo[2,3-d]pyrimidin-4-yl)-1H-pyrazol-1-yl]-3-(4-{[2-(trifluoromethyl)pyrimidin-4-yl]carbonyl}piperazin-1-yl)cyclobutyl]acetonitrile-d1] |  |  |  |  | IC50 (JAK2 (a.a. 828-1132); Table D, read-out: JAK2 IC50): 25 to 100 nM; IC50 ([1]; Table D, read-out: JAK1 IC50): < 10 nM
9 | CN(C)C(=O)N1CCN([C@H]2C[C@](CC#N)(n3cc(-c4ncnc5[nH]ccc45)cn3)C2)CC1 [Example 32, 4-{trans-3-(cyanomethyl)-3-[4-(7H-pyrrolo[2,3-d]pyrimidin-4-yl)-1H-pyrazol-1-yl]cyclobutyl}-N,N-dimethylpiperazine-1-carboxamide] | > 100 | < 10 |  |  | 
10 | CN(C)Cc1cc(F)cc(C(=O)N2CCN([C@H]3C[C@](CC#N)(n4cc(-c5ncnc6[nH]ccc56)cn4)C3)CC2)c1 [Example 33, {trans-3-(4-{3-[(dimethylamino)methyl]-5-fluorobenzoyl}piperazin-1-yl)-1-[4-(7H-pyrrolo[2,3-d]pyrimidin-4-yl)-1H-pyrazol-1-yl]cyclobutyl}acetonitrile] | < 10 | < 10 |  |  | 
11 | CN(C)Cc1cc(F)cc(CN2CCN([C@H]3C[C@](CC#N)(n4cc(-c5ncnc6[nH]ccc56)cn4)C3)CC2)c1 [Example 34, {trans-3-(4-{3-[(dimethylamino)methyl]-5-fluorobenzyl}piperazin-1-yl)-1-[4-(7H-pyrrolo[2,3-d]pyrimidin-4-yl)-1H-pyrazol-1-yl]cyclobutyl}acetonitrile] | 10 to 25 | < 10 |  |  | 
12 | N#CC[C@]1(n2cc(-c3ncnc4[nH]ccc34)cn2)C[C@H](N2CCN(S(=O)(=O)C3CC3)CC2)C1 [Example 36, {trans-3-[4-(cyclopropylsulfonyl)piperazin-1-yl]-1-[4-(7H-pyrrolo[2,3-d]pyrimidin-4-yl)-1H-pyrazol-1-yl]cyclobutyl}acetonitrile] | < 10 | < 10 |  |  | 
13 | CN(C)S(=O)(=O)N1CCN([C@H]2C[C@](CC#N)(n3cc(-c4ncnc5[nH]ccc45)cn3)C2)CC1 [Example 37, 4-{trans-3-(cyanomethyl)-3-[4-(7H-pyrrolo[2,3-d]pyrimidin-4-yl)-1H-pyrazol-1-yl]cyclobutyl}-N,N-dimethylpiperazine-1-sulfonamide] | < 10 | < 10 |  |  | 
14 | CCN(C)C(=O)N1CCN([C@H]2C[C@](CC#N)(n3cc(-c4ncnc5[nH]ccc45)cn3)C2)CC1 [Example 38, 4-{trans-3-(cyanomethyl)-3-[4-(7H-pyrrolo[2,3-d]pyrimidin-4-yl)-1H-pyrazol-1-yl]cyclobutyl}-N-ethyl-N-methylpiperazine-1-carboxamide] | 25 to 100 | < 10 |  |  | 
15 | CN(C)Cc1cc(C(=O)N2CCN([C@H]3C[C@](CC#N)(n4cc(-c5ncnc6[nH]ccc56)cn4)C3)CC2)cc(C(F)(F)F)c1 [Example 39, {trans-3-{4-[3-[(dimethylamino)methyl]-5-(trifluoromethyl)benzoyl]piperazin-1-yl}-1-[4-(7H-pyrrolo[2,3-d]pyrimidin-4-yl)-1H-pyrazol-1-yl]cyclobutyl}acetonitrile] | 25 to 100 | < 10 |  |  | 
16 | CN(C)Cc1cc(C#N)cc(C(=O)N2CCN([C@H]3C[C@@](CC#N)(n4cc(-c5ncnc6[nH]ccc56)cn4)C3)CC2)c1 [Example 42, 3-[(4-{cis-3-(cyanomethyl)-3-[4-(7H-pyrrolo[2,3-d]pyrimidin-4-yl)-1H-pyrazol-1-yl]cyclobutyl}piperazin-1-yl)carbonyl]-5-[(dimethylamino)methyl]benzonitrile] |  |  |  |  | IC50 (JAK2 (a.a. 828-1132); Table F): > 100 nM; IC50 ([1]; Table F): < 10 nM

The next lines start with results.

Row | IC50 (JAK2 (a.a. 828-1132); Table B, read-out: JAK2 IC50) [nM] | IC50 ([1]; Table B, read-out: JAK1 IC50) [nM] | IC50 (JAK2 (a.a. 828-1132); Table A, read-out: JAK2 IC50) [nM] | IC50 ([1]; Table A, read-out: JAK1 IC50) [nM] | Compound | further results
17 | 25 to 100 | < 10 |  |  | N#CC[C@]1(n2cc(-c3ncnc4[nH]ccc34)cn2)C[C@H](N2CCN(C(=O)c3cccc(C(F)(F)F)n3)CC2)C1 [Example 20b, {trans-1-[4-(7H-pyrrolo[2,3-d]pyrimidin-4-yl)-1H-pyrazol-1-yl]-3-(4-{[6-(trifluoromethyl)pyridin-2-yl]carbonyl}piperazin-1-yl)cyclobutyl}acetonitrile] | 
18 |  |  | 25 to 100 | < 10 | N#CC[C@]1(n2cc(-c3ncnc4[nH]ccc34)cn2)C[C@@H](N2CCN(C(=O)c3cccc(C(F)F)n3)CC2)C1 [Example 21a, {cis-3-(4-{[6-(difluoromethyl)pyridin-2-yl]carbonyl}piperazin-1-yl)-1-[4-(7H-pyrrolo[2,3-d]pyrimidin-4-yl)-1H-pyrazol-1-yl]cyclobutyl}acetonitrile] | 
19 | 10 to 25 | < 10 |  |  | N#CC[C@]1(n2cc(-c3ncnc4[nH]ccc34)cn2)C[C@H](N2CCN(C(=O)c3cccc(C(F)F)n3)CC2)C1 [Example 21b, {trans-3-(4-{[6-(difluoromethyl)pyridin-2-yl]carbonyl}piperazin-1-yl)-1-[4-(7H-pyrrolo[2,3-d]pyrimidin-4-yl)-1H-pyrazol-1-yl]cyclobutyl}acetonitrile] | 
20 |  |  | > 100 | 10 to 25 | N#CC[C@]1(n2cc(-c3ncnc4[nH]ccc34)cn2)C[C@@H](N2CCN(Cc3cncc(F)c3)CC2)C1 [Example 23a, {cis-3-{4-[(5-fluoropyridin-3-yl)methyl]piperazin-1-yl}-1-[4-(7H-pyrrolo[2,3-d]pyrimidin-4-yl)-1H-pyrazol-1-yl]cyclobutyl}acetonitrile] | 
21 | 25 to 100 | < 10 |  |  | N#CC[C@]1(n2cc(-c3ncnc4[nH]ccc34)cn2)C[C@H](N2CCN(Cc3cncc(F)c3)CC2)C1 [Example 23b, {trans-3-{4-[(5-fluoropyridin-3-yl)methyl]piperazin-1-yl}-1-[4-(7H-pyrrolo[2,3-d]pyrimidin-4-yl)-1H-pyrazol-1-yl]cyclobutyl}acetonitrile] | 
22 |  |  | > 100 | 10 to 25 | CC(C)c1nccc(C(=O)N2CCN([C@H]3C[C@@](CC#N)(n4cc(-c5ncnc6[nH]ccc56)cn4)C3)CC2)n1 [Example 24a, {cis-3-{4-[(2-isopropylpyrimidin-4-yl)carbonyl]piperazin-1-yl}-1-[4-(7H-pyrrolo[2,3-d]pyrimidin-4-yl)-1H-pyrazol-1-yl]cyclobutyl}acetonitrile] | 
23 | 25 to 100 | 10 to 25 |  |  | CC(C)c1nccc(C(=O)N2CCN([C@H]3C[C@](CC#N)(n4cc(-c5ncnc6[nH]ccc56)cn4)C3)CC2)n1 [Example 24b, {trans-3-{4-[(2-isopropylpyrimidin-4-yl)carbonyl]piperazin-1-yl}-1-[4-(7H-pyrrolo[2,3-d]pyrimidin-4-yl)-1H-pyrazol-1-yl]cyclobutyl}acetonitrile] | 
